Values of other authors in patent US20040023969A1, “Combination of an allosteric alkyne inhibitor of matrix metalloproteinase-13 with celecoxib or valdecoxib” (priority 2002, published 2004).

For `Cc1onc(-c2ccccc2)c1-c1ccc(S(N)(=O)=O)cc1` [valdecoxib, 4-(5-methyl-3-phenyl-4-isoxazolyl)-benzenesulfonamide], the “Tolerability in clinical studies” value (combined analysis of various clinical studies) is listed as “well tolerated” and the “Overall upper gastrointestinal safety profile (ulcers, perforations, obstructions and GI bleeds)” value (compared with ibuprofen, diclofenac and naproxen) is listed as “significantly better than the conventional NSAIDs studied”.
